Data from the NIST ThermoML archive (doi:10.1021/je400968v).

Tests used:
[1] = mn = molality of the nth substance listed, in mol/kg; settings: 101 kPa, Liquid; for viscosity: Capillary tube (Ostwald / Ubbelohde) method; for mass density: Vibrating tube method
[2] = 101 kPa, Liquid; for viscosity: Capillary tube (Ostwald / Ubbelohde) method; for mass density: Vibrating tube method

Cc1c(N)cccc1N [2,6-diaminotoluene] + CCCCO
[1]
Settings | mass density, 293.15 K [kg/m3] | mass density, 303.15 K [kg/m3] | mass density, 313.15 K [kg/m3] | mass density, 323.15 K [kg/m3] | mass density, 333.15 K [kg/m3] | viscosity, 293.15 K [mPa·s] | viscosity, 303.15 K [mPa·s] | viscosity, 313.15 K [mPa·s] | viscosity, 323.15 K [mPa·s] | viscosity, 333.15 K [mPa·s]
m1 = 0.05 | 811.28 | 803.61 | 795.81 | 787.85 | 779.68 | 2.922 | 2.233 | 1.728 | 1.356 | 1.075
m1 = 0.0995 | 812.81 | 805.13 | 797.31 | 789.34 | 781.16 | 2.941 | 2.246 | 1.735 | 1.361 | 1.078
m1 = 0.1499 | 814.34 | 806.66 | 798.81 | 790.84 | 782.65 | 2.96 | 2.259 | 1.746 | 1.368 | 1.085
m1 = 0.1994 | 815.82 | 808.13 | 800.27 | 792.28 | 784.08 | 2.978 | 2.268 | 1.755 | 1.374 | 1.087
m1 = 0.2495 | 817.27 | 809.58 | 801.7 | 793.7 | 785.5 | 3.001 | 2.291 | 1.764 | 1.379 | 1.093

Cc1c(N)cccc1N [2,6-diaminotoluene] + O
[1]
Settings | mass density, 293.15 K [kg/m3] | mass density, 303.15 K [kg/m3] | mass density, 313.15 K [kg/m3] | mass density, 323.15 K [kg/m3] | mass density, 333.15 K [kg/m3] | viscosity, 293.15 K [mPa·s] | viscosity, 303.15 K [mPa·s] | viscosity, 313.15 K [mPa·s] | viscosity, 323.15 K [mPa·s] | viscosity, 333.15 K [mPa·s]
m1 = 0.0501 | 998.9 | 996.32 | 992.86 | 988.65 | 983.81 | 1.032 | 0.813 | 0.665 | 0.557 | 0.4741
m1 = 0.1002 | 999.59 | 996.97 | 993.49 | 989.24 | 984.38 | 1.053 | 0.832 | 0.677 | 0.563 | 0.479
m1 = 0.1502 | 1000.27 | 997.61 | 994.1 | 989.82 | 984.89 | 1.066 | 0.838 | 0.681 | 0.568 | 0.483
m1 = 0.2 | 1000.92 | 998.24 | 994.69 | 990.38 | 985.37 | 1.081 | 0.85 | 0.69 | 0.573 | 0.487
m1 = 0.2497 | 1001.57 | 998.86 | 995.27 | 990.93 | 985.79 | 1.09 | 0.854 | 0.694 | 0.575 | 0.488
m1 = 0.2993 | 1002.21 | 999.47 | 995.84 | 991.46 | 986.15 | 1.112 | 0.87 | 0.702 | 0.585 | 0.495

Cc1ccc(N)cc1N [4-methyl-1,3-benzendiamine] + CCCCO
[1]
Settings | mass density, 293.15 K [kg/m3] | mass density, 303.15 K [kg/m3] | mass density, 313.15 K [kg/m3] | mass density, 323.15 K [kg/m3] | mass density, 333.15 K [kg/m3] | viscosity, 293.15 K [mPa·s] | viscosity, 303.15 K [mPa·s] | viscosity, 313.15 K [mPa·s] | viscosity, 323.15 K [mPa·s] | viscosity, 333.15 K [mPa·s]
m1 = 0.0497 | 811.16 | 803.49 | 795.7 | 787.74 | 779.59 | 2.922 | 2.237 | 1.731 | 1.357 | 1.076
m1 = 0.0997 | 812.62 | 804.93 | 797.13 | 789.15 | 781 | 2.939 | 2.246 | 1.736 | 1.362 | 1.079
m1 = 0.1501 | 814.06 | 806.37 | 798.55 | 790.56 | 782.41 | 2.954 | 2.258 | 1.746 | 1.367 | 1.083
m1 = 0.1999 | 815.48 | 807.77 | 799.94 | 791.94 | 783.78 | 2.972 | 2.269 | 1.751 | 1.372 | 1.087
m1 = 0.2491 | 816.86 | 809.14 | 801.3 | 793.29 | 785.12 | 2.994 | 2.279 | 1.759 | 1.377 | 1.091

Cc1ccc(N)cc1N [4-methyl-1,3-benzendiamine] + O
[1]
Settings | mass density, 293.15 K [kg/m3] | mass density, 303.15 K [kg/m3] | mass density, 313.15 K [kg/m3] | mass density, 323.15 K [kg/m3] | mass density, 333.15 K [kg/m3] | viscosity, 293.15 K [mPa·s] | viscosity, 303.15 K [mPa·s] | viscosity, 313.15 K [mPa·s] | viscosity, 323.15 K [mPa·s] | viscosity, 333.15 K [mPa·s]
m1 = 0.0503 | 998.84 | 996.26 | 992.81 | 988.59 | 983.71 | 1.018 | 0.81 | 0.662 | 0.554 | 0.472
m1 = 0.0998 | 999.45 | 996.84 | 993.36 | 989.11 | 984.2 | 1.035 | 0.822 | 0.671 | 0.562 | 0.479
m1 = 0.1503 | 1000.06 | 997.41 | 993.9 | 989.62 | 984.68 | 1.051 | 0.831 | 0.679 | 0.571 | 0.484
m1 = 0.1999 | 1000.64 | 997.95 | 994.42 | 990.11 | 985.14 | 1.069 | 0.842 | 0.686 | 0.578 | 0.49

CCCCO [butan-1-ol]
[2]
Settings | mass density [kg/m3] | viscosity [mPa·s]
293.15 K | 809.69 | 2.908
303.15 K | 802.04 | 2.225
313.15 K | 794.27 | 1.723
323.15 K | 786.32 | 1.351
333.15 K | 778.16 | 1.071

CCCCO [butan-1-ol] + Cc1c(N)cccc1N
[1], m2 = 0
Settings | mass density [kg/m3] | viscosity [mPa·s]
293.15 K | 809.69 | 2.908
303.15 K | 802.04 | 2.225
313.15 K | 794.27 | 1.723
323.15 K | 786.32 | 1.351
333.15 K | 778.16 | 1.071

CCCCO [butan-1-ol] + Cc1ccc(N)cc1N
[1], m2 = 0
Settings | mass density [kg/m3] | viscosity [mPa·s]
293.15 K | 809.69 | 2.908
303.15 K | 802.04 | 2.225
313.15 K | 794.27 | 1.723
323.15 K | 786.32 | 1.351
333.15 K | 778.16 | 1.071

CCO [ethanol]
[2]
Settings | mass density [kg/m3] | viscosity [mPa·s]
293.15 K | 789.56 | 1.179
303.15 K | 780.98 | 0.972
313.15 K | 772.22 | 0.806
323.15 K | 763.29 | 0.672
333.15 K | 754.18 | 0.564

CCO [ethanol] + Cc1c(N)cccc1N
[1], m2 = 0
Settings | mass density [kg/m3] | viscosity [mPa·s]
293.15 K | 789.56 | 1.179
303.15 K | 780.98 | 0.972
313.15 K | 772.22 | 0.806
323.15 K | 763.29 | 0.672
333.15 K | 754.18 | 0.564

CCO [ethanol] + Cc1ccc(N)cc1N
[1], m2 = 0
Settings | mass density [kg/m3] | viscosity [mPa·s]
293.15 K | 789.56 | 1.179
303.15 K | 780.98 | 0.972
313.15 K | 772.22 | 0.806
323.15 K | 763.29 | 0.672
333.15 K | 754.18 | 0.564

CCCO [propan-1-ol]
[2]
Settings | mass density [kg/m3] | viscosity [mPa·s]
293.15 K | 803.86 | 2.171
303.15 K | 795.54 | 1.696
313.15 K | 787.37 | 1.338
323.15 K | 779.01 | 1.067
333.15 K | 770.42 | 0.859

CCCO [propan-1-ol] + Cc1c(N)cccc1N
[1], m2 = 0
Settings | mass density [kg/m3] | viscosity [mPa·s]
293.15 K | 803.86 | 2.171
303.15 K | 795.54 | 1.696
313.15 K | 787.37 | 1.338
323.15 K | 779.01 | 1.067
333.15 K | 770.42 | 0.859

CCCO [propan-1-ol] + Cc1ccc(N)cc1N
[1], m2 = 0
Settings | mass density [kg/m3] | viscosity [mPa·s]
293.15 K | 803.86 | 2.171
303.15 K | 795.54 | 1.696
313.15 K | 787.37 | 1.338
323.15 K | 779.01 | 1.067
333.15 K | 770.42 | 0.859

O [water]
[2]
Settings | mass density [kg/m3] | viscosity [mPa·s]
293.15 K | – | 1.002
303.15 K | – | 0.798
313.15 K | – | 0.653
323.15 K | 988.04 | 0.547
333.15 K | 983.2 | 0.467

O [water] + Cc1c(N)cccc1N
[1], m2 = 0
Settings | mass density [kg/m3] | viscosity [mPa·s]
293.15 K | – | 1.002
303.15 K | – | 0.798
313.15 K | – | 0.653
323.15 K | 988.04 | 0.547
333.15 K | 983.2 | 0.467

O [water] + Cc1ccc(N)cc1N
[1], m2 = 0
Settings | mass density [kg/m3]
323.15 K | 988.04
333.15 K | 983.2
